Assay results reported in patent US20140357512A1, “HISTONE DEACETYLASE (HDAC) BIOMARKERS IN MULTIPLE MYELOMA” (priority 2013, published 2014).

Tested on: human myeloma cell line MM.1S
Assay: SILAC acetylated-lysine peptide profiling, HDAC inhibitor vs DMSO (light/heavy ratio)
Type: cell-based
Source text: An embodiment of the invention comprises utilizing the SILAC method in order to quantitate changes in protein expression between two or more populations of cells. The SILAC method is a technique based on mass spectrometry that detects differences in protein abundance among samples using non-radioactive isotopic labeling. The SILAC method is known in the art, and described in detail in Ong et al., “Stable Isotope Labeling by Amino Acids in Cell Culture, SILAC, as a Simple and Accurate Approach to Expression Proteomics”, Molecular & Cellular Proteomics, vol. 1, pp. 376-386 (2002), which is incorporated herein by reference in its entirety.
Briefly, the SILAC method involves growing two populations of cells in cell culture. The first population of cells is grown in growth media containing normal amino acids (“normal media”). The second population of cells is grown in media lacking a standard essential amino acid (such as lysine), but is then supplemented with a non-radioactive, isotopically labeled form of that essential amino acid (such as lysine labeled with ^13C atoms, rather than normal ^12C atoms), which is called “heavy media”. When the two populations of cells are each growing in the medium, they incorporate the amino acids into all of their proteins. The growth of cells maintained in the heavy media is no different from that in normal media. All peptides containing the heavy amino acids are heavier than their normal counterparts. The cells from each of the two populations of cells are lysed. The lysates from each of the two cell populations are then combined. The combined cell lysates are then analyzed by mass spectrometry. Pairs of chemically identical peptides of different stable isotope composition can be differentiated in a mass spectrometer due to their difference in mass. The ratio of peak intensities in the mass spectrum for such peptide pairs reflects the abundance ratio for the two proteins.
This example describes SILAC studies that were performed to compare the effects of three different HDAC inhibitors (Compound A, Compound B, and tubastatin A) to a control on a human multiple myeloma cell line. The HDAC inhibitors were also compared amongst themselves to determine differences in their effects.
A human myeloma cell line MM.1S was grown using either ^12C (light) or ^13C (heavy) lysine containing culture medium. The “heavy” cells were treated with DMSO as the control, and the “light” cells were treated with a single HDAC inhibitor at 37° C. for 6 hours. The heavy and light cells were lysed, and the lysates were mixed in 1:1 ratio and digested with the protease trypsin. The acetylated lysine containing peptides (due to the action of the HDAC inhibitor) in the digested peptide pool were captured by a non-specific anti-acetylated lysine antibody cocktail (the antibodies identify both light and heavy acetylated peptides), and subjected to mass spectrometry analysis in order to identify thousands of individual peptides.
Thousands of peptides were identified in pairs (^12C and ^13C) due to their known mass differences. The amino acid sequence and quantitative ratio (Light/Heavy) of a given peptide in two differentially treated cell lysates were then determined and annotated with their possible protein (gene) sources.
As stated above, three HDAC inhibitors (Compound A, Compound B, and Tubastatin A) were used. Thus, the SILAC method was performed three times, with a different HDAC inhibitor compared to a control each time. Accordingly, there are three pairs of quantitative data in the table below, i.e., Compound A:DMSO, Compound B:DMSO, and Tubastatin A:DMSO. A cut-off of 1.30 fold of change (increase or decrease) was then used to determine “changed” or “+” in the table, and any peptides with a fold of change less than 1.3 fold were determined to be “unchanged” or “0” in the table. Those peptides that were not identified were marked as “NA” in the table. […]

O=C(NO)c1cnc(NC2(c3cccc(F)c3)CCCCC2)nc1 [Compound B, 2-((1-(3-fluorophenyl)cyclohexyl)amino)-N-hydroxypyrimidine-5-carboxamide]
light to heavy ratio (L/H ratio) of acetylated peptide SEVDMLK(ac)IR (SEQ ID NO: 295) (Putative annexin A2-like protein [302], ANXA2P2, drug:DMSO): 0.00 log 2
light to heavy ratio (L/H ratio) of acetylated peptide K(ac)[…] (SEQ ID NO: 358) (Putative annexin A2-like protein [310], ANXA2P2, drug:DMSO): 0.66 log 2
L/H ratio of acetylated peptide (QLNDVK(ac)[…] (SEQ ID NO: 386), Scavenger mRNA-decapping enzyme DcpS [128], DCPS): 0.97 log 2
L/H ratio of acetylated peptide EIDSVK(ac)[…] (SEQ ID NO: 73) (RAC2 [153], log 2 scale, drug vs DMSO): 0.00
light to heavy ratio (L/H ratio) of acetylated peptide, log 2 scale (RPAVK(ac)QFHDSK (SEQ ID NO: 203), 60S ribosomal protein L18a [143], RPL18A): 0.00
L/H ratio of acetylated peptide FIDTTSK(ac)FGHGR (SEQ ID NO: 83) (RPL3L [373], log 2 scale, drug vs DMSO): 0.00
L/H ratio of acetylated peptide AASLK(ac)SNYNLPMHK (SEQ ID NO: 84) (RPL4 [274], log 2 scale, drug vs DMSO): 0.00
L/H ratio of acetylated peptide NFLGEK(ac)YIR (SEQ ID NO: 86) (RPL9 [121], log 2 scale, drug vs DMSO): 0.00
L/H ratio of acetylated peptide […](ac)SR (SEQ ID NO: 79) (RPL18A [41], log 2 scale, drug vs DMSO): 0.00
L/H ratio of acetylated peptide YLK(ac)YLTK (SEQ ID NO: 81) (RPL22 [84], log 2 scale, drug vs DMSO): 0.00
L/H ratio of acetylated peptide INFDK(ac)YHPGYFGK (SEQ ID NO: 82) (RPL27A [47], log 2 scale, drug vs DMSO): 0.00
L/H ratio of acetylated peptide LK(ac)[…] (SEQ ID NO: 89) (RPS4X [53], log 2 scale, drug vs DMSO): 0.00
L/H ratio of acetylated peptide SFQK(ac)IQVR (SEQ ID NO: 90) (RPS7 [74], log 2 scale, drug vs DMSO): 0.00
L/H ratio of acetylated peptide […](ac)GK (SEQ ID NO: 87) (RPS23 [135], log 2 scale, drug vs DMSO): 0.00
L/H ratio of acetylated peptide LAVLK(ac)YYK (SEQ ID NO: 88) (RPS27A [104], log 2 scale, drug vs DMSO): 0.00
light to heavy ratio (L/H ratio) of acetylated peptide […](ac)YK (SEQ ID NO: 360) (Rho GDP-dissociation inhibitor 2 [47], ARHGDIB, drug:DMSO): 0.60 log 2
light to heavy ratio (L/H ratio) of acetylated peptide […](ac)R (SEQ ID NO: 334) (S1 IF1 type family protein [56], EIF1AXP1, drug:DMSO): −0.40 log 2
L/H ratio of acetylated peptide LAELK(ac)QECLAR (SEQ ID NO: 94) (SARNP 17], log 2 scale, drug vs DMSO): 0.00
L/H ratio of acetylated peptide (ac)ATETVELHK(ac)LK (SEQ ID NO: 93) (SARNP [10], log 2 scale, drug vs DMSO): 0.00
L/H ratio of acetylated peptide (SELEFK(ac)FNR (SEQ ID NO: 422), Sialic acid synthase [61], NANS): 0.53 log 2
L/H ratio of acetylated peptide EHTALLK(ac)IEGVYAR (SEQ ID NO: 630, 60S ribosomal protein L35a [29], RPL35A): 0.00 log 2
L/H ratio of acetylated peptide NDEELNK(ac)LLGR (SEQ ID NO: 634, Histone H2A type 1-B/E [96], HIST1H2AE, HIST1H2AB, HIST1H2AD, HIST1H2AG, HIST1H2AK, HIST1H2AL, HIST1H2AM, HIST1H2AJ, HIST1H2AI): 0.00 log 2
L/H ratio of acetylated peptide TFK(ac)[…] (SEQ ID NO: 636, 60S ribosomal protein L3 [103], SNORD43, RPL3): 0.00 log 2
L/H ratio of acetylated peptide YK(ac)[…] (SEQ ID NO: 637, Protein disulfide-isomerase [328], P4HB): 0.00 log 2
L/H ratio of acetylated peptide NAEK(ac)YAEEDRR (SEQ ID NO: 638, Stress-70 protein mitochondrial [567], HSPA9): 0.00 log 2
L/H ratio of acetylated peptide […](ac)DR (SEQ ID NO: 639, pyruvate dehydrogenase E1 component subunit alpha somatic form mitochondrial isoform 2 precursor [359], PDHA1): 0.00 log 2
L/H ratio of acetylated peptide VEYFLK(ac)WK (SEQ ID NO: 645, Chromobox protein homolog 3 [50], CBX3): 0.00 log 2
L/H ratio of acetylated peptide HYK(ac)TDFDK (SEQ ID NO: 646, Isocitrate dehydrogenase [NADP] mitochondrial [275], IDH2): 0.00 log 2
L/H ratio of acetylated peptide EGYAWAEDK(ac)EHCEEYGR (SEQ ID NO: 647, tRNA-splicing ligase RtcB homolog [190], C22orf28): 0.00 log 2
L/H ratio of acetylated peptide […](ac)QNK (SEQ ID NO: 650, Dihydrolipoyl dehydrogenase mitochondrial [143], DLD): 0.00 log 2
L/H ratio of acetylated peptide FYVK(ac)DHR (SEQ ID NO: 651, CDGSH iron-sulfur domain-containing protein 1 [37], CISD1): 0.00 log 2
L/H ratio of acetylated peptide HIVK(ac)EFK (SEQ ID NO: 653, Stress-70 protein mitochondrial [288], HSPA9): 0.00 log 2
L/H ratio of acetylated peptide MYKEEGLK(ac)AFYK (SEQ ID NO: 654, Isoform A of Phosphate carrier protein mitochondrial [214], SLC25A3): 0.00 log 2
L/H ratio of acetylated peptide […](ac)EFR (SEQ ID NO: 657, Isoform 1 of Clathrin heavy chain 1 [1264], CLTC): 0.00 log 2
L/H ratio of acetylated peptide YELTGK(ac)FER (SEQ ID NO: 659, Annexin A6 [81], ANXA6): 0.00 log 2
L/H ratio of acetylated peptide LAMVK(ac)AEPDVK (SEQ ID NO: 661, NADH dehydrogenase [ubiquinone] 1 alpha subcomplex subunit 5 [60], NDUFA5): 0.00 log 2
L/H ratio of acetylated peptide NEK(ac)LFYR (SEQ ID NO: 662, NADP-dependent malic enzyme mitochondrial [119], ME3): 0.00 log 2
L/H ratio of acetylated peptide DLSLDDFK(ac)GK (SEQ ID NO: 664, Thioredoxin-dependent peroxide reductase mitochondrial [91], PRDX3): 0.00 log 2
L/H ratio of acetylated peptide LTSDDVK(ac)EQIYK (SEQ ID NO: 669, 40S ribosomal protein S13 [34], RPS13): 0.00 log 2
L/H ratio of acetylated peptide SCNCLLLK(ac)[…] (SEQ ID NO: 670, Isoform alpha-enolase of Alpha-enolase [343], ENO1): 0.00 log 2
L/H ratio of acetylated peptide […](ac)FLIK (SEQ ID NO: 671, Methyltransferase-like protein 7A [105], METTL7A): 0.00 log 2
L/H ratio of acetylated peptide […](ac)QLK (SEQ ID NO: 672, Annexin A6 [442], ANXA6): 0.00 log 2
L/H ratio of acetylated peptide LENDK(ac)SFR (SEQ ID NO: 678, Isoform 1 of Enoyl-CoA delta isomerase 1 mitochondrial [89], ECI1): 0.00 log 2
L/H ratio of acetylated peptide LVAMK(ac)FLR (SEQ ID NO: 679, Isoform 1 of Nucleoside diphosphate kinase B [39], NME1, NME2, NME1-NME2): 0.00 log 2
L/H ratio of acetylated peptide SGK(ac)YDLDFK (SEQ ID NO: 688, Isoform alpha-enolase of Alpha-enolase [256], ENO1): 0.00 log 2
L/H ratio of acetylated peptide LYGDLK(ac)HLK (SEQ ID NO: 689, cDNA FLJ61478 highly similar to Succinate dehydrogenase (ubiquinone) flavoprotein subunit mitochondrial [547], SDHA): 0.00 log 2
L/H ratio of acetylated peptide TISAK(ac)YAEER (SEQ ID NO: 692, Isoform 1 of Myosin-9 [1459], MYH9): 0.00 log 2
L/H ratio of acetylated peptide (ac)ASNK(ac)TTLQK (SEQ ID NO: 693, Chromobox protein homolog 3 [5], CBX3): 0.00 log 2
L/H ratio of acetylated peptide KAVTK(ac)VQK (SEQ ID NO: 699, Histone H2B type 2-F [21], HIST2H2BF): 0.00 log 2
L/H ratio of acetylated peptide ILQK(ac)QGFK (SEQ ID NO: 700, Dihydrolipoyl dehydrogenase mitochondrial [267], DLD): 0.00 log 2
L/H ratio of acetylated peptide NK(ac)FGAPQK (SEQ ID NO: 701, Trifunctional enzyme subunit alpha mitochondrial [353], HADHA): 0.00 log 2
L/H ratio of acetylated peptide VTAVHK(ac)ANIMK (SEQ ID NO: 702, Isocitrate dehydrogenase [NAD] subunit gamma mitochondrial [221], IDH3G): 0.00 log 2
L/H ratio of acetylated peptide ACPEK(ac)HFAFK (SEQ ID NO: 703, Protein FAM3C [67], FAM3C): 0.00 log 2
L/H ratio of acetylated peptide QLAQK(ac)YNCDK (SEQ ID NO: 705, Ubiquitin-60S ribosomal protein L40 [88], UBA52): 0.00 log 2
L/H ratio of acetylated peptide […](ac)EDVK (SEQ ID NO: 706, Isoform 1 of ATP synthase subunit d mitochondrial [95], ATP5H): 0.00 log 2
L/H ratio of acetylated peptide ADK(ac)LAEEHSS (SEQ ID NO: 708, ATP synthase subunit beta mitochondrial [522], ATP5B): 0.00 log 2
L/H ratio of acetylated peptide DFGSFDK(ac)FK (SEQ ID NO: 709, Superoxide dismutase [Mn] mitochondrial [130], SOD2): 0.00 log 2
L/H ratio of acetylated peptide CSK(ac)LPSSTK(ac)SGWPR (SEQ ID NO: 711, cDNA FLJ75110 highly similar to Homo sapiens PHD finger protein 15 (PHF15) mRNA 3[2:38], PHF15): 0.00 log 2
L/H ratio of acetylated peptide KAINK(ac)AQK (SEQ ID NO: 712, Histone H2B type 1-M [21], HIST1H2BM): 0.00 log 2
L/H ratio of acetylated peptide TDLEK(ac)[…] (SEQ ID NO: 714, Putative annexin A2-like protein [157], ANXA2P2): 0.00 log 2
L/H ratio of acetylated peptide KGIEK(ac)NLGIGK (SEQ ID NO: 718, Malate dehydrogenase mitochondrial [301], MDH2): 0.00 log 2
L/H ratio of acetylated peptide QLYNIYAK(ac)HTK (SEQ ID NO: 720, Putative ATP-dependent Clp protease proteolytic subunit mitochondrial [211], CLPP): 0.00 log 2
L/H ratio of acetylated peptide GKGDK(ac)AQIEK (SEQ ID NO: 721, 60 kDa heat shock protein mitochondrial [364], HSPD1): 0.00 log 2
L/H ratio of acetylated peptide K(ac)FLVHNVK (SEQ ID NO: 722, 60S ribosomal protein L32 [76], RPL32): 0.00 log 2
